Assay results taken from patent US20120164128A1, “MEANS AND METHODS FOR COUNTERACTING POLYQ EXPANSION DISORDERS” (Academisch Medisch Centrum, priority 2009, published 2012).

Assays:
polyQ peptides = assay: Peptidase inhibitor study in cells co-expressing DnaJB6, Western blot against polyQ; type: cell-based; conditions: inhibitor in combination with DnaJB6, treated for eight hours, FIG. 8B
Procedure: (§1) Cytosolic extracts were generated by lysing cells with 0.1% Triton X-100 for 30 minutes at 4° C., and supernatant was used after spinning down the lysate. 20 μg of cytosolic protein lysates were separated by 18% SDS-PAGE and transferred to Protan nitrocellulose membranes. Membranes were blocked in 5% dry milk in TBS containing 0.3% tween and probed with anti-Polyglutamine 1C2 (MAB1574, Millipore). Preparation of SDS-soluble and SDS-insoluble protein fractions was described before (example 1 and Carra et al., 2008). For peptidase inhibitory studies, transfected cells were treated for eight hours with different peptidase inhibitors before lysates were generated for Western blotting.
To elucidate which clearance pathway led to the degradation of the polyQ peptides, several inhibitors were used in combination with DnaJB6 and DnaJB8. Cysteine proteases were inhibited by E-64, aspartyl proteases by pepstatin A, metalloproteases by bestatin, serine proteases by phenylmethylsulfonyl (PMSF), proteasomes were inhibited by MG-132 and macroautophagy was inhibited by 3-methyladenine (3-MA).

[1] = tested on: polyQ peptides derived from GFP-Ub-Q65; assay: Western blot against polyQ (1C2) of cells expressing GFP-Ub-Q65 with altered TPPII activity; type: cell-based; conditions: for polyQ peptide levels: cells expressing GFP-Ub-Q65, TPPII co-expressed or inhibited, FIG. 10 panel A
Procedure: as §1
Large polyQ-peptides are preferably cleaved by endo-peptidases, as a few cleavages will result in smaller polyQ peptides below the disease-threshold that can be targeted by recycling amino-peptidases. To measure endo-peptidase activity against glutamines, we designed a probe containing 8 glutamines, flanked by a fluorophore (left) and a quencher (right). When the glutamines are cleaved, the quencher is released from the fluorophore, leading to fluorescence. Since the termini themselves are protected against exo-peptidases, only endo-peptidases can handle the peptide by cleaving the Q stretch. […] Since this experiment was performed with a small Q peptide, we next examined whether TPPII was able to prevent accumulation and aggregation of polyQ peptides derived from GFP-Ub-Q65. […] Some additional high molecular weight bands were present, representing oligomeric complexes. […] When testing two TPPII variants that have an altered conformation and lowered endo- peptidase activity, the levels of polyQ peptides (and resulting aggregates) increased again, showing that TPPII complex formation affects polyQ peptide degradation. […] This was achieved by either co-expressing TPPII or adding the specific inhibitor of TPPII, butabindide. […] Similarly, polyQ fragments generated by the proteasome upon degradation of polyQ expanded proteins were targeted by TPPII. […]

HEK293T cells = assay: Scoring of cells with fluorescent aggregates by fluorescence microscopy; type: cell-based, Human
Procedure: Human embryonic kidney cells (HEK293T) and Mel JuSo fibroblast cells where cultured in IMDM (GIBCO) supplemented with 10% FCS and penicillin/streptomycin/L-glutamine. The cells where transiently transfected with Fugene6 (Roche) and analyzed at indicated time-points after transfection. Mouse STHdh^+/+(Q7) cells (kindly provided by Marcy MacDonald) (Trettel et al, 2000) and N2A neuroblastoma cells were cultured in DMEM supplemented with 10% FCS and penicillin/streptomycin/L-glutamine. Neuronal cells where transiently transfected with Lipofectamine 2000 (Invitrogen). Mouse STHdh^+/+(Q7) cells were incubated at 32° C. For toxicity measurements, N2A cells were analyzed by FACS LSRII for GFP fluorescence 24 or 48 hours after transfection, and the percentage of GFP-positive cells was quantified.
HEK293T cells were transfected with indicated constructs and the percentages of aggregates were scored using an inverted fluorescence microscope (Leica DMR). For imaging, Mel Juso cells were transiently transfected with indicated constructs and images where obtained using a confocal microscope (Leica SP2) using a 63× objective. Note that some pictures show ‘over-exposed’ fluorescent aggregates in order to visualize non-sequestered, cytoplasmic staining. […]

polyQ peptides (Q65) = assay: SDS-soluble and SDS-insoluble fractions stained against polyQ; type: cell-based; conditions: co-expression with Q65 peptides; for amount of polyQ peptides in the SDS-insoluble fraction: FIG. 8A
Procedure: Cytosolic extracts were generated by lysing cells with 0.1% Triton X-100 for 30 minutes at 4° C., and supernatant was used after spinning down the lysate. 20 μg of cytosolic protein lysates were separated by 18% SDS-PAGE and transferred to Protan nitrocellulose membranes. Membranes were blocked in 5% dry milk in TBS containing 0.3% tween and probed with 1:1000 anti-GFP (Molecular Probes), 1:100 anti-Ub (SIGMA) or the anti-Polyglutamine 1C2 (MAB1574, Millipore). Polyclonal Horseradish Peroxidase (HRP) conjugated secondary antibodies, anti-rabbit (Sigma) or anti-mouse (DAKO) were used 1:10.000 to detect the primary antibodies via Lumi-lightPLUS westernblotting substrate (Roche). Preparation of SDS-soluble and SDS-insoluble protein fractions was described before (Carra et al., 2008). Briefly, cells were trypsinized, homogenized, and heated for 10 min at 99° C. in sample buffer (70 mM Tris pH 6.8, 1.5% SDS, 20% glycerol) supplemented with 50 mM DTT 72 hours after transfection. Cell lysates were centrifuged for at least 30 minutes at 14.000 rpm at room temperature. Supernatants were used as SDS-soluble fraction to which 0.05% bromophenol blue was added. Pellets represented SDS-insoluble fractions and were dissolved in 100% formic acid, incubated 30 minutes at 37° C., lyophilized overnight in a speed vac (Eppendorf), and resuspended in a ¼ of the volume of sample buffer containing 0.05% bromophenol blue. Samples were separated on either 18% SDS-PAGE (anti-polyQ), or 12.5% SDS-PAGE (anti-GFP) and further treated as Western blots.
as §1, with “For peptidase inhibitory studies, transfected cells were treated for eight hours with different peptidase inhibitors before lysates were generated for Western blotting.” left out

**Q.** For `CC(C)C[C@H](NC(=O)[C@H]1O[C@@H]1C(=O)O)C(=O)NCCCCN=C(N)N` [E-64], which “polyQ peptide levels despite DnaJB6” value (polyQ peptides) is on record?
**A.** re-appearance of polyQ peptides

**Q.** For `O=S(=O)(F)Cc1ccccc1` [PMSF, phenylmethylsulfonyl], which “polyQ peptide levels despite DnaJB6” value (polyQ peptides) is on record?
**A.** re-appearance of polyQ peptides

**Q.** `CCCCNC(=O)[C@@H]1Cc2ccccc2N1C(=O)[C@@H](N)CC` [butabindide, reference compound] was tested. Which polyQ peptide levels [1] did it give?
**A.** accumulation of polyQ peptides

**Q.** With “DnaJB6: member of the Hsp40/DnaJ heat shock protein family, co-expressed chaperone” as the molecule, how does the “aggregation on co-expression with GFP-Ub-Q65” value (HEK293T cells) read?
**A.** considerable decrease in aggregation

**Q.** What about the “amount of polyQ peptides in the SDS-insoluble fraction” value (polyQ peptides (Q65)) of the same molecule?
**A.** remarkably reduced

**Q.** And the “polyQ peptides in the SDS-soluble fraction” value (polyQ peptides (Q65); FIG. 8A and B)?
**A.** marked decrease

**Q.** With tripeptidyl peptidase II [TPPII] as the molecule, how does the polyQ peptide levels [1] read?
**A.** reduced polyQ levels

**Q.** And the “aggregated and low-molecular weight Q65 peptide levels” value ([1]; co-expression with GFP-Ub-Q65, immunoblot 1C2, FIG. 7)?
**A.** decrease in both aggregated and low-molecular weight Q65 peptides

B1: DnaJB8: member of the Hsp40/DnaJ heat shock protein family, co-expressed chaperone (protein, UniProt Q8NHS0 1-232, looked up)
DnaJ homolog subfamily B …: MANYYEVLGVQASASPEDIKKAYRKLALRWHPDKNPDNKEEAEKKFKLVSEAYEVLSDSKKRSLYDRAGCDSWRAGGGASTPYHSPFDTGYTFRNPEDIFREFFGGLDPFSFEFWDSPFNSDRGGRGHGLRGAFSAGFGEFPAFMEAFSSFNMLGCSGGSHTTFSSTSFGGSSSGSSGFKSVMSSTEMINGHKVTTKRIVENGQERVEVEEDGQLKSVTVNGKEQLKWMDSK
**Q.** With B1 as the molecule, how does the “aggregation on co-expression with GFP-Ub-Q65” value (HEK293T cells) read?
**A.** considerable decrease in aggregation

**Q.** What about the “amount of polyQ peptides in the SDS-insoluble fraction” value (polyQ peptides (Q65)) of the same molecule?
**A.** remarkably reduced
